The numbers were not newly measured in publication PMC11704089, “A Novel Cell-Penetrating Peptide–Vascular Endothelial Growth Factor Small Interfering Ribonucleic Acid Complex That Mediates the Inhibition of Angiogenesis by Human Umbilical Vein Endothelial Cells and in an Ex Vivo Mouse Aorta Ring Model” (Biomaterials Research, 2025), which cites them from elsewhere.

For the data set, the system named is various cell lines.

Turning to RNQRKTVRCFRCRQAGHWISDCRLKSK [Ara27], the Cytotoxicity result is reported as “without evidence of cytotoxicity”; the “Intracellular uptake compared to Tat-protein transduction domain and membrane translocating sequence” value is given as “significant improvement in intracellular uptake”. The Cellular internalization result (low concentrations and short treatment conditions, various cell lines) is on record as “efficiently internalized”.
